Data published in publication PMC12444508, “Mechanistic Insights into the Anticancer Action of Novel 2‑Hydroxy-1,4-naphthoquinone Thiol Derivatives” (ACS Omega, 2025).

Key:
[1] = tested on: HCT-116 (colorectal cancer); assay: MTT cytotoxicity/selectivity, HCT-116; type: cell-based; conditions: vs normal oral fibroblasts
Method: (§1) Human SCC-4, SCC-9, and SCC-25 cells, derived from a human oral tongue SCC (squamous cell carcinoma), were obtained from ATCC (CRL-1624, CRL-1629, and CRL-1628, respectively) and maintained in 1:1 DMEM/F12 (Dulbecco’s modified Eagle’s medium and Ham’s F12 medium; Gibco (Thermo Fisher, Waltham, MA, USA)) supplemented with 10% (v/v) FBS (fetal bovine serum; Invitrogen, Thermo Fisher, Waltham, MA, USA) and 400 ng/mL hydrocortisone (Sigma-Aldrich Corporation, St. Louis, MO, USA). B16-F10 (melanoma; CRL-6475), HCT-116 (colorectal cancer; CCL-247), and HepG2 (liver cancer; HB-8065), in addition to primary normal human gingival fibroblasts obtained from ATCC (PCS-201-018), were maintained in DMEM supplemented with 10% (v/v) of FBS and were used in a maximum of six passages. Cells were grown in a humidified environment containing 5% CO2 at 37 °C. For all biological assays, compounds and shikonin were solubilized in 100% DMSO (all Sigma-Aldrich Corp.) to a final concentration of 10 mM and lapachol in ethanol. The carboplatin control was prepared in water (Fauldcarbo; Libbs Farmacêutica, São Paulo, SP, Brazil) and was used as a standard anticancer compound.
The viability of OSCC cell lines and primary human fibroblast cells was assessed using the MTT assay as in ref . Briefly, cells were grown in triplicate in 96-well plates (5 × 10^3 cells/well) until confluence. Then, the medium was removed, fresh medium was added, and the cells were returned to the incubator in the presence of different compounds. […] Then, the wells containing the cells were washed with PBS heated to 37 °C, the formazan crystals were dissolved in a solvent solution (DMSO/methanol 1:1 v/v), and the absorbance was read at 560 nm using an EPOCH microplate spectrophotometer (BioTek Instruments, Winooski, VT, USA) with the background absorbance at 670 nm subtracted. […]
Data are presented as means ± SD. […] The selectivity index was calculated as SI = IC50 of the compound in normal oral fibroblast cells/IC50 of the same compound for each oral cancer cell line (SCC-4, SCC-9, and SCC-25) and averaged when indicated.

SCC-9 cells = assay: Reactive oxygen species production (ROS-Glo H2O2); type: cell-based, human; conditions: 2 × IC50, 24, 48 and 72 h, menadione positive control
Method: The assay was performed in SCC-9 cells as previously described. […] Menadione (M9529, Sigma-Aldrich Corporation, San Luis, Mo., USA), at a concentration of 20 μM, served as a positive control, while DMSO, at equivalent concentrations to the test substances, served as the negative control. Cells were then incubated at 37 °C with 5% CO2 for the indicated time, and ROS was measured by ROS-Glo H2O2 Assay G8820 (Promega Corporation, Madison, WI 53711 USA) as indicated by the vendor. The luminescence signal was measured using a luminescence detector, Luminometer TD-20/20 (Turner Designs Instrument, Sunnyvale, CA, USA).

C57BL/6 mice = assay: In vivo acute toxicity study; conditions: single intraperitoneal dose 100, 200 and 400 mg/kg, 14 days
Method: . All experiments were carried out in accordance with Brazilian guidelines and regulations. Dosing and analysis were performed in accordance with 423 OECD guidelines and reviewed by. Each group of animals had n = 3 and received only one intraperitoneal injection (Day 0) of compounds 7a and 7e dissolved in […] of PBS and 3% DMSO. Animals in the control group received only 3% DMSO in PBS. The first dose of the compound was 100 mg/kg. Subsequent dose levels (200 mg/kg and 400 mg/kg) were determined based on the result obtained from the previous dose. Animals were examined daily, twice a day, for mortality and morbidity for 14 days, when all animals were anesthetized (ketamine 100 mg/kg and xylazine 10 mg/kg) followed by cervical dislocation. Macroscopic necropsy of the main organs was performed. The animals’ body weight and average food consumption were measured every 7 days. As an indicator of morbidity, the following signs were evaluated: tremors, seizure, salivation, diarrhea, and lethargy, along with the signs of pain, increased back arching, and mobility disability. The necropsy included examination of the external characteristics of the carcass; external orifices of the body; the abdominal, thoracic, and cranial cavities; and organs/tissues of the liver, thymus, right kidney, right testicle, heart, and lung.

SCC-4 cells = assay: MTT cell viability assay, SCC-4; type: cell-based, human; conditions: for IC50: Homo sapiens, SCC-4, 72 h, MTT, read-out: IC50 SCC-4; for selective index (SI) SCC-4: vs normal oral fibroblasts
Method: as §1
(§2) The viability of OSCC cell lines and primary human fibroblast cells was assessed using the MTT assay as in ref . Briefly, cells were grown in triplicate in 96-well plates (5 × 10^3 cells/well) until confluence. Then, the medium was removed, fresh medium was added, and the cells were returned to the incubator in the presence of different compounds. DMSO at the same concentration was used as a control for 100% cell viability. After 72 h, cells were incubated with 0.5 mg/mL of MTT reagent (3-(4,5-dimethyl-2-thiazolyl)-2,5-diphenyl-2-H-tetrazolium bromide) (Sigma-Aldrich Corporation, Louis, MO, USA) for 3.5 h. Then, the wells containing the cells were washed with PBS heated to 37 °C, the formazan crystals were dissolved in a solvent solution (DMSO/methanol 1:1 v/v), and the absorbance was read at 560 nm using an EPOCH microplate spectrophotometer (BioTek Instruments, Winooski, VT, USA) with the background absorbance at 670 nm subtracted. Control chemotherapeutics (carboplatin and shikonin) were used.
(§3) Data are presented as means ± SD. IC50 values for the MTT assays were obtained by nonlinear regression using the […] 8.4.3.0 program (Intuitive Software for Science, San Diego, CA, USA) from at least three independent experiments. A dose–response curve (inhibitor) vs response using the least-squares method was used to determine the IC50, SD, and R2 of the data. The selectivity index was calculated as SI = IC50 of the compound in normal oral fibroblast cells/IC50 of the same compound for each oral cancer cell line (SCC-4, SCC-9, and SCC-25) and averaged when indicated.

SCC-9-LC3-GFP cells = assay: Autophagy assay (LC3-GFP puncta); type: cell-based, human; conditions: 1 × IC50, 48 h
Method: To determine whether compounds 7a and 7e induce autophagy, SCC-9 cells were stably transduced with the plasmid expressing LC3-GFP as described. […] As a positive control, we used compound 8 (Supplementary Figure S1), an already described naphthoquinone-triazole-coumarin hybrid, able to induce autophagy at its IC50 concentration, 30 μM. After 48 h, the cells were visualized using a Zeiss Axio Observer A1 Fluorescence Optical Microscope (Zeiss, Oberkochen, Baden-Württemberg, Germany) to observe the formation of typical autophagy spots and photographed using a high-resolution monochromatic microscopy camera (Axiocam 503 mono, resolution: 1936 × 1460 pixels, pixel size: 4.54 μm × 4.54 μm) to maximize sensitivity and image quality.

[2] = tested on: OSCC cell lines (SCC-4, SCC-9, and SCC-25); assay: Average selectivity index over three OSCC cell lines (MTT); type: cell-based, human; conditions: average of SI for SCC-4, SCC-9 and SCC-25 vs normal oral fibroblasts
Method: as §1, §2, §3

SCC-9 cells (OSCC cells) = assay: MTT cell viability assay, SCC-9; type: cell-based, human; conditions: for IC50: Homo sapiens, SCC-9, 72 h, MTT, read-out: IC50 SCC-9 oral cancer; for SI (SCC-9): IC50 normal oral fibroblast / IC50 SCC-9
Method: as §1, §2, §3

Compound: CC1(C)OC2=C(C(=O)c3ccccc3C2=O)C(Sc2ccccc2)C1Sc1ccccc1 (stereo not shown) [7a, 2,2-Dimethyl-3,4-bis(phenylthio)-3,4-dihydro-2H-benzo[g]chromene-5,10-dione]
- selective index (SI) HCT-116 colon cancer [1]: 2.7
- ROS production (SCC-9 cells): induced the generation of ROS
- abdominal cavity and macroscopic organs at necropsy (C57BL/6 mice): no morphological changes or lesions
- body weight and food consumption vs control animals (C57BL/6 mice): no significant difference
- IC50 (SCC-4 cells): 10.6 µM
- selective index (SI) SCC-4 (SCC-4 cells): 5.4
- cells with LC3-positive puncta (autophagosome formation) (SCC-9-LC3-GFP cells): 20.5%
- average SI [2]: 3.2
- IC50 (SCC-9 cells (OSCC cells)): 26.3 µM
- SI (SCC-9) (SCC-9 cells (OSCC cells)): 2.2

Compound: COc1ccc(SC2C3=C(OC(C)(C)C2Sc2ccc(OC)cc2)C(=O)c2ccccc2C3=O)cc1 (stereo not shown) [7e, 3,4-Bis((4-methoxyphenyl)thio)-2,2-dimethyl-3,4-dihydro-2H-benzo[g]chromene-5,10-dione]
- selective index (SI) HCT-116 colon cancer [1]: 9.1
- ROS production (SCC-9 cells): induced the generation of ROS
- abdominal cavity and macroscopic organs at necropsy (C57BL/6 mice): no morphological changes or lesions
- body weight and food consumption vs control animals (C57BL/6 mice): no significant difference
- IC50 (SCC-4 cells): 57.1 µM
- selective index (SI) SCC-4 (SCC-4 cells): 1.9
- cells with LC3-positive puncta (autophagosome formation) (SCC-9-LC3-GFP cells): 7.4%
- IC50 (SCC-9 cells (OSCC cells)): 46.5 µM
- SI (SCC-9) (SCC-9 cells (OSCC cells)): 2.4
